This note sets out measurements from US20250368649A1, “TETRAHYDROPYRIDOPYRIMIDINE PAN-KRAS INHIBITORS” (Mirati Therapeutics, Inc., priority 2022, published 2025).

As a reminder, the IC50 is the point on the concentration scale where inhibition reaches its midpoint. A word on the inhibition: it is the share of the control response that was lost under treatment.

For experiment [1], the system named is HCT116 cells. The experiment can be described thus: Inhibition of KRas-mediated phosphorylation of ERK (Cisbio HTRF pERK), HCT116 cells. It counts as cell-based. To be noted: Homo sapiens, HCT-116, 3 h, 3 hr compound incubation.
For experiment [2], the system named is ASPC1 cells. The experiment can be described thus: Inhibition of KRas-mediated phosphorylation of ERK (Cisbio HTRF pERK), ASPC1 cells. The class given is cell-based. To be noted: Homo sapiens, ASPC1, 3 h, AsPC-1 cells, 3 hr compound incubation. Background: In TR-FRET formats the signal depends on donor and acceptor labels being close together.
The subject of experiment [3] is A549 cells. The experiment in a line: Inhibition of KRas-mediated phosphorylation of ERK (Cisbio HTRF pERK), A549 cells. To be noted: Homo sapiens; for IC50: A549, 3 h, 3 hr compound incubation. It counts as cell-based.
Experiment [4] concerns PSN1 cells. The experiment can be described thus: Inhibition of KRas-mediated phosphorylation of ERK (Cisbio HTRF pERK), PSN1 cells. It counts as cell-based. The settings on record: Homo sapiens, PSN1, 3 h. A digest of the protocol: (§1)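 Day 1: 6,000 cells/well plated, RPMI + 10% FBS.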
Experiment [5] concerns H460 cells. The experiment in a line: Inhibition of KRas-mediated phosphorylation of ERK (Cisbio HTRF pERK), H460 cells. It counts as cell-based. The settings on record: Homo sapiens, NCI-H460, 3 h, 3 hr compound incubation.
Experiment [6] deals with KRas G13D (Homo sapiens, UniProt P01116, G13D). It counts as binding. The settings on record: single point, 10 nM compound, read-out: Binding to KRas (% inhibition at 10 nM) G13D.
Experiment [7] concerns the target KRas Q61H (Homo sapiens, UniProt P01116, Q61H). The experiment can be described thus: KRas binding assay (TR-FRET displacement), KRas Q61H. The settings on record: single point, 10 nM compound.
Experiment [8] deals with H727 cells. The experiment can be described thus: Inhibition of KRas-mediated phosphorylation of ERK (Cisbio HTRF pERK), H727 cells. The settings on record: Homo sapiens, NCI-H727, 3 h, 3 hr compound incubation. It counts as cell-based.
For experiment [9], the target named is KRas G12C (Homo sapiens, UniProt P01116, G12C). The class given is binding. To be noted: for IC50: TR-FRET displacement, read-out: Binding to KRas (IC50 nM) G12C.
The target in experiment [10] is KRas G12R (Homo sapiens, UniProt P01116, G12R). The experiment in a line: biochemical. The settings on record: Binding to KRas (IC50 nM) G12R, TR-FRET displacement, KRas G12R.
The target of experiment [11] is KRas G12A (Homo sapiens, UniProt P01116, G12A). The class given is binding. The settings on record: single point, 10 nM compound, read-out: Binding to KRas (% inhibition at 10 nM) G12A.
For experiment [12], the target named is KRas G12V (Homo sapiens, UniProt P01116, G12V). The experiment in a line: biochemical. The settings on record: Binding to KRas (IC50 nM) G12V, TR-FRET displacement, KRas G12V.
The subject of experiment [13] is MKN1 cells. The experiment can be described thus: Inhibition of KRas-mediated phosphorylation of ERK (Cisbio HTRF pERK), MKN1 cells. It counts as cell-based. To be noted: Homo sapiens. The gist of the method: as §1
Experiment [14] has as its target KRas G12S (Homo sapiens, UniProt P01116, G12S). It counts as binding. The settings on record: for IC50: TR-FRET displacement, read-out: Binding to KRas (IC50 nM) G12S.
Experiment [15] relates to H358 cells. The experiment can be described thus: Inhibition of KRas-mediated phosphorylation of ERK (Cisbio HTRF pERK), H358 cells. It counts as cell-based. The settings on record: Homo sapiens; for IC50: NCI-H358, 3 h, 3 hr compound incubation.
Experiment [16] addresses KRas WT (Homo sapiens, UniProt P01116). The experiment can be described thus: KRas binding assay (TR-FRET displacement), KRas WT. To be noted: for IC50: TR-FRET displacement.
Experiment [17] concerns the target KRas G12D (Homo sapiens, UniProt P01116, G12D). The experiment can be described thus: biochemical. The settings on record: Binding to KRas (IC50 nM) G12D, TR-FRET displacement, KRas G12D.
The test system of experiment [18] is H2009 cells. The experiment in a line: Inhibition of KRas-mediated phosphorylation of ERK (Cisbio HTRF pERK), H2009 cells. It counts as cell-based. The settings on record: Homo sapiens, NCI-H2009, 3 hr compound incubation.
[19] abbreviates: MKN-1, 3 hr compound incubation.

Chain of KRas WT (P01116 1-169 isoform P01116-2): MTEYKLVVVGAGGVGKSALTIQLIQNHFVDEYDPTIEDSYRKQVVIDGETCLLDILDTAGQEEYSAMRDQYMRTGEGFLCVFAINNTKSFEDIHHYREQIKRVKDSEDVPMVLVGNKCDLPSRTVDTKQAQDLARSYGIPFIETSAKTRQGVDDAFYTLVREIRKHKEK
Chain of KRas G12V (P01116 1-169 isoform P01116-2 G12V): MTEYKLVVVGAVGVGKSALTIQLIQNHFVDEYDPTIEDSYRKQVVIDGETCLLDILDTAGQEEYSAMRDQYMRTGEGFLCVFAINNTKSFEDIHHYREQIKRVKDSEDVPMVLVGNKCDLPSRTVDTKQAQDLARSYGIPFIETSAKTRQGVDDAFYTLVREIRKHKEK
Chain of KRas G12S (P01116 1-169 isoform P01116-2 G12S): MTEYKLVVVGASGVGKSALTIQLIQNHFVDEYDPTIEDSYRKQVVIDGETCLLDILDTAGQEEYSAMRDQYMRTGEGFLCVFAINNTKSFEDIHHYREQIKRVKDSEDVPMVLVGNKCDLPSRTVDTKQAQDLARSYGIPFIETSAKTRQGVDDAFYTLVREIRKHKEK
Chain of KRas G12D (P01116 1-169 isoform P01116-2 G12D): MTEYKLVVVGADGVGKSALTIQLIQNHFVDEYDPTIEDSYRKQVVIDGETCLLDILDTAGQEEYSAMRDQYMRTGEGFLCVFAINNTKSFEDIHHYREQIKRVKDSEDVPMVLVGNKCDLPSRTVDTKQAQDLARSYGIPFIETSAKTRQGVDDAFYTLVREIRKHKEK
Chain of KRas G12C (P01116 1-169 isoform P01116-2 G12C): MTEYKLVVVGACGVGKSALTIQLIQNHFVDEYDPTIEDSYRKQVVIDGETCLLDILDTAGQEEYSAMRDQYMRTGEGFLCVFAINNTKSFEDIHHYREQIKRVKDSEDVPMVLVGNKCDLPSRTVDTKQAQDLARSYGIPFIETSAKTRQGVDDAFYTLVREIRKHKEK
Chain of KRas Q61H (P01116 1-169 isoform P01116-2 Q61H): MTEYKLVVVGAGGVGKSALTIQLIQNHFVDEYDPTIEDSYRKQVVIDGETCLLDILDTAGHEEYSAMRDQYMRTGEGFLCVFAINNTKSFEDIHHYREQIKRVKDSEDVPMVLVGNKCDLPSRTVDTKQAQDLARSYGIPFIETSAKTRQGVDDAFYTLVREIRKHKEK
Chain of KRas G12R (P01116 1-169 isoform P01116-2 G12R): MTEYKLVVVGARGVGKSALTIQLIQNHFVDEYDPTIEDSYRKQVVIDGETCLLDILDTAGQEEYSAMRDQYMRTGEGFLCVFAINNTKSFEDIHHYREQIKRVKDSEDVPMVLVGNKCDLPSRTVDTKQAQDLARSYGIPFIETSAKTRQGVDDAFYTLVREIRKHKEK
Chain of KRas G12A (P01116 1-169 isoform P01116-2 G12A): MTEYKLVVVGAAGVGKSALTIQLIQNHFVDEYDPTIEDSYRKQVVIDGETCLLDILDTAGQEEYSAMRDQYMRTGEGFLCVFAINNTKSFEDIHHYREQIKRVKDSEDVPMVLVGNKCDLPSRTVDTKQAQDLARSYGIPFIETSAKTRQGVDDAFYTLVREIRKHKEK
Chain of KRas G13D (P01116 1-169 isoform P01116-2 G13D): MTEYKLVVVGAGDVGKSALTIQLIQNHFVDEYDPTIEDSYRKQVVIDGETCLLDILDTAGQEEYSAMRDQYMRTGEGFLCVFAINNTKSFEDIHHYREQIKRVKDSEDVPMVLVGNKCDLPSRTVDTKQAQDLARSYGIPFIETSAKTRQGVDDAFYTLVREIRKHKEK

Turning to `CCc1c(F)ccc2cc(O)cc(N3CCc4c(nc(OC[C@@]56CCCN5C[C@H](F)C6)nc4N4CCCn5nc(NC)c(OC)c5C4)C3)c12` [Example 393, 5-ethyl-6-fluoro-4-(2-(((2R,7aS)-2-fluorohexahydro-1H-pyrrolizin-7a-yl)methoxy)-4-(3-methoxy-2-(methylamino)-7,8-dihydro-4H-pyrazolo[1,5-a][1,4]diazepin-5(6H)-yl)-5,6-dihydropyrido[3,4-d]pyrimidin-7(8H)-yl)naphthalen-2-ol], the IC50 was 235 nM in experiment [1] (Cisbio pERK HTRF); 59 nM in [2] (Cisbio pERK HTRF); greater than 10000 nM in experiment [4] (3 hour compound incubation, Cisbio pERK HTRF); 72 nM in experiment [5] (Cisbio pERK HTRF); 201 nM in experiment [8] (Cisbio pERK HTRF); 4 nM in experiment [10]. For the same compound, the IC50 in experiment [12] worked out at 5 nM; in experiment [13] (MKN-1, 3 hour compound incubation, Cisbio pERK HTRF) it was 58.5 nM; in [17], 4 nM. Also, the inhibition at 0.1 µM was 41% in [3] (single point at 100 nM, 3 hrs compound incubation) and 83% in experiment [15] (NCI-H358, single point at 100 nM, 3 hrs compound incubation). Further, the inhibition at 0.01 µM is 64% in experiment [6]; 60% in [7]; 83% in experiment [9] (single point, 10 nM compound, read-out: Binding to KRas (% inhibition at 10 nM) G12C); 66% in experiment [11]; 72% in [14] (single point, 10 nM compound, read-out: Binding to KRas (% inhibition at 10 nM) G12S); 60% in experiment [16] (single point, 10 nM compound).

In the case of `C[C@@]1(O)COCCN(c2nc(OC[C@@]34CCCN3C[C@H](F)C4)nc3c2CCN(c2ccc(F)c4sc(N)c(C#N)c24)C3)C1` [Example 710, 2-amino-7-fluoro-4-(2-(((2R,7aS)-2-fluorotetrahydro-1H-pyrrolizin-7a(5H)-yl)methoxy)-4-((S)-6-hydroxy-6-methyl-1,4-oxazepan-4-yl)-5,8-dihydropyrido[3,4-d]pyrimidin-7(6H)-yl)benzo[b]thiophene-3-carbonitrile], the IC50 in experiment [1] was 1860 nM; in [2], 626 nM; in [3] it was 1210 nM; in experiment [4] (3 hr compound incubation), greater than 10000 nM; in experiment [5], 813 nM; in experiment [8], 1110 nM. Besides, the IC50 was 48 nM in [9]; 221 nM in experiment [18]; 60 nM in experiment [12]; 75.9 nM in [13] (setting [19]); 60 nM in [14]; 484 nM in [15]. The results for the IC50 in experiment [16] and in [17] were 52 nM and 57 nM, respectively.

On to `C[C@@]1(O)CCCN(c2nc(OC[C@@]34CCCN3C[C@H](F)C4)nc3c2CCN(c2ccc(F)c4sc(N)c(C#N)c24)C3)C1` [Example 711, 2-amino-7-fluoro-4-(2-(((2R,7aS)-2-fluorotetrahydro-1H-pyrrolizin-7a(5H)-yl)methoxy)-4-((R)-3-hydroxy-3-methylpiperidin-1-yl)-5,8-dihydropyrido[3,4-d]pyrimidin-7(6H)-yl)benzo[b]thiophene-3-carbonitrile], for which the IC50 was 7220 nM in experiment [1]; 1940 nM in experiment [2]; 4820 nM in experiment [3]; greater than 10000 nM in experiment [4] (3 hr compound incubation); 2520 nM in experiment [5]; 7410 nM in experiment [8]. Also, the concentration for half-maximal inhibition (IC50) amounted to 19 nM in [9]; 424 nM in experiment [18]; 21 nM in [12]; 830 nM in experiment [13] (setting [19]); 13 nM in experiment [14]; 2680 nM in [15]. The IC50 in experiment [16] is 10 nM; in [17], 17 nM.

Consider `C=C1CN2CCCC2(COc2nc3c(c(N4CCCC5(CNS(=O)(=O)N5)C4)n2)CCN(c2cc(O)cc4ccc(F)c(CC)c24)C3)C1` (stereo not shown) [Example 712, 7-(7-(8-ethyl-7-fluoro-3-hydroxynaphthalen-1-yl)-2-((2-methylenetetrahydro-1H-pyrrolizin-7a(5H)-yl)methoxy)-5,6,7,8-tetrahydropyrido[3,4-d]pyrimidin-4-yl)-2-thia-1,3,7-triazaspiro[4.5]decane 2,2-dioxide], for which the IC50 in experiment [1] is 240 nM; in experiment [2], 70 nM; in experiment [3], 216 nM; in experiment [4] (3 hr compound incubation), 806 nM; in experiment [5] it was 141 nM; in experiment [8] it was 421 nM. For the same compound, the IC50 in experiment [9] was 2 nM; in [18], 19 nM; in [12], 3 nM; in experiment [13] (setting [19]), 1.4 nM; in [14] it was less than 2 nM; in [15], 30 nM. The IC50 in experiment [16] was 2 nM; in experiment [17] it was 3 nM.

For the compound `C=C1CN2CCCC2(COc2nc3c(c(N4CCCC5(CCO5)C4)n2)CCN(c2cc(O)cc4ccc(F)c(CC)c24)C3)C1` (stereo not shown) [Example 713, 5-ethyl-6-fluoro-4-(2-((2-methylenetetrahydro-1H-pyrrolizin-7a(5H)-yl)methoxy)-4-(1-oxa-6-azaspiro[3.5]nonan-6-yl)-5,8-dihydropyrido[3,4-d]pyrimidin-7(6H)-yl)naphthalen-2-ol], the 50% inhibitory concentration (IC50) amounted to 253 nM in [1]; 51 nM in experiment [2]; 92 nM in experiment [3]; 1800 nM in experiment [4] (3 hr compound incubation); 127 nM in experiment [5]; 67 nM in experiment [8]. Also, the IC50 in experiment [9] was less than 2 nM; in experiment [18] it was 17 nM; in experiment [12] it was less than 2 nM; in [13] (setting [19]), 10.5 nM; in [14], less than 2 nM; in [15], 29 nM. Further, the IC50 in experiment [16] was less than 2 nM; in experiment [17], 2 nM.
